# T1: CD39-L4 (Homo sapiens, UniProt O75356)
# T1 construct: to allow purification of the secreted mature form of the protein; made in house; host or cells: COS-7 cells, transient transfection (pcDNA3.1); protein captured from the medium on Nickel-NTA resin
# T1 sequence (O75356 25-428): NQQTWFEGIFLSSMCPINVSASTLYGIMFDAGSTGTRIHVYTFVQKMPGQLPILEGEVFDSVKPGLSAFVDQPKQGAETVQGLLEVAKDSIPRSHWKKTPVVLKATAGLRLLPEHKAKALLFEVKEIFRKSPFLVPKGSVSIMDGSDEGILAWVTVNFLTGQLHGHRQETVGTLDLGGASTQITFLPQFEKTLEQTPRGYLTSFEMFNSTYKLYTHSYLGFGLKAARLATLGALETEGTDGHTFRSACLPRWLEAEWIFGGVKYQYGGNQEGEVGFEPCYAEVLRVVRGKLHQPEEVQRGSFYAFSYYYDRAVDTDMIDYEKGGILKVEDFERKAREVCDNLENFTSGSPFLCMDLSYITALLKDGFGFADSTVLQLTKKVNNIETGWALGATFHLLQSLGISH
# Columns and labels:
# [1] = biological target: T1, CD39-L4; test: Substrate (nucleotide) specificity of CD39-L4, inorganic phosphate release; type: biochemical; conditions: nucleotide 1 mM; for % OF CONTROL, substrate specificity of CD39-L4: relative to ADP, buffer A with 1 mM EGTA, 2 mM CaCl2 and MgCl2
# [2] = system: CD39-L2; test: Substrate (nucleotide) specificity of CD39-L2, inorganic phosphate release; type: biochemical, human; conditions: for % OF CONTROL, substrate specificity of CD39-L2: relative to ADP, nucleotide 1 mM, buffer A with 1 mM EGTA, 3 mM CaCl2 and 3 mM MgCl2, 37° C., 30 min; for enzymatic activity relative to ADP hydrolysis: assays repeated with 15 mM ADP and 15 mM CaCl2
# [3] = biological target: T1, CD39-L4; test: Inhibition of CD39-L4 ADPase activity by ATPase/phosphatase inhibitors and chelators; type: biochemical; conditions: concentrations as in Table 1
# [4] = system: CD39-L2; test: Inhibition of CD39-L2 ADPase activity by ATPase/phosphatase inhibitors and chelators; type: biochemical, human; conditions: concentrations as in Table 3
# [5] = biological target: the molecule itself; test: Western blot of SDS-PAGE, self-association (dimer)
# [6] = ADPase and ATPase activity of CD39L4 wild type and ACR mutants, inorganic phosphate released; type: biochemical
# [7] = Kinetic characteristics of CD39-L2 ADP hydrolysis; type: biochemical
# [8] = ADPase activity of CD39-L2 from transfected COS-7 cells, stimulation by divalent cations and Ca2+ titration; type: biochemical
# [9] = 15 mM CaCl2, ADP 0.75-18 mM, 15 min, 37° C.
Molecule,"% OF CONTROL, substrate specificity of CD39-L4 [1] [%]","% OF CONTROL, substrate specificity of CD39-L2 [2] [%]","inhibition of Ca2+ and Mg2+ stimulated CD39-L4 ADPase activity, in words [3]","inhibition of CD39-L2 ADPase activity, in words [4]",other results
Nc1ccn([C@@H]2O[C@H](COP(=O)(O)OP(=O)(O)OP(=O)(O)O)[C@@H](O)[C@H]2O)c(=O)n1 [CTP],26 ± 2,44 ± 4,,,
CCN1C(=O)C=CC1=O [NEM],,,did not significantly inhibit,not inhibited,
"Nc1ncnc2c1ncn2[C@@H]1O[C@H](COP(=O)(O)OP(=O)(O)OP(=O)(O)O)[C@@H](O)[C@H]1O [ATP, Adenosine triphosphate]",5 ± 1,16 ± 2,,,"hydrolysis of the nucleotide by CD39-L4, in words [1]: poorest substrate"
Nc1ccn([C@@H]2O[C@H](COP(=O)(O)OP(=O)(O)O)[C@@H](O)[C@H]2O)c(=O)n1 [CDP],268 ± 11,282 ± 18,,,enzymatic activity relative to ADP hydrolysis [2]: 73%
Nc1nc2c(ncn2[C@@H]2O[C@H](COP(=O)(O)OP(=O)(O)OP(=O)(O)O)[C@@H](O)[C@H]2O)c(=O)[nH]1 [GTP],34 ± 1,39 ± 1,,,
O=C(O)CN(CCOCCOCCN(CC(=O)O)CC(=O)O)CC(=O)O [EGTA],,,significantly inhibited activity,inhibited CD39-L2 activity,
F [F^−],,,did not inhibit activity,partially inhibited activity,
Nc1nc2c(ncn2[C@@H]2O[C@H](COP(=O)(O)OP(=O)(O)O)[C@@H](O)[C@H]2O)c(=O)[nH]1 [GDP],334 ± 38,338 ± 52,,,"hydrolysis of the nucleotide by CD39-L4, in words [1]: very efficiently hydrolyzed; enzymatic activity relative to ADP hydrolysis [2]: 280%"
"Nc1ncnc2c1ncn2[C@@H]1O[C@H](COP(=O)(O)OP(=O)(O)O)[C@@H](O)[C@H]1O [ADP, Adenosine diphosphate]",100 ± 15,100 ± 8,,,rate of ADP hydrolysis by CD39-L4 relative to ATP [1]: approximately twenty-fold higher than ATP
O=C(O)CN(CCN(CC(=O)O)CC(=O)O)CC(=O)O [EDTA],,,significantly inhibited activity,inhibited CD39-L2 activity,
O=c1ccn([C@@H]2O[C@H](COP(=O)(O)OP(=O)(O)OP(=O)(O)O)[C@@H](O)[C@H]2O)c(=O)[nH]1 [UTP],12 ± 4,13 ± 1,,,
[N-]=[N+]=[N-] [N3^−],,,did not significantly inhibit,not inhibited,
C[C@@H]1O[C@@H](O[C@H]2C[C@@H](O)[C@]3(CO)[C@H]4[C@H](O)C[C@]5(C)[C@@H](C6=CC(=O)OC6)CC[C@]5(O)[C@@H]4CC[C@]3(O)C2)[C@H](O)[C@H](O)[C@H]1O [Ouabain],,,did not significantly inhibit,not inhibited,
O=c1ccn([C@@H]2O[C@H](COP(=O)(O)OP(=O)(O)O)[C@@H](O)[C@H]2O)c(=O)[nH]1 [UDP],408 ± 14,303 ± 5,,,"hydrolysis of the nucleotide by CD39-L4, in words [1]: very efficiently hydrolyzed; enzymatic activity relative to ADP hydrolysis [2]: 228%"
Nc1ncnc2c1ncn2[C@@H]1O[C@H](COP(=O)(O)OP(=O)(O)OP(=O)(O)OP(=O)(O)OP(=O)(O)OC[C@H]2O[C@@H](n3cnc4c(N)ncnc43)[C@H](O)[C@@H]2O)[C@@H](O)[C@H]1O [Ap5A],,,did not inhibit activity,did not inhibit activity,
"CD39L4 Cys39 to Ser mutant with a myc epitope and a 6 His tag at the C-terminus (enzyme, not shown: small tags and cut ends, also called Ser39 mutant; cys-mutant CD39L4) HRNQQTWFEGIFLSSMSPINVSASTLYGIMFDAGSTGTRIHVYTFVQKMPGQLPILEGEVFDSVKPGLSAFVDQPKQGAETVQGLLEVAKDSIPRSHWKKTPVVLKATAGLRLLPEHKAKALLFEVKEIFRKSPFLVPKGSVSIMDGSDEGILAWVTVNFLTGQLHGHRQETVGTLDLGGASTQITFLPQFEKTLEQTPRGYLTSFEMFNSTYKLYTHSYLGFGLKAARLATLGALETEGTDGHTFRSACLPRWLEAEWIFGGVKYQYGGNQEGEVGFEPCYAEVLRVVRGKLHQPEEVQRGSFYAFSYYYDRAVDTDMIDYEKGGILKVEDFERKAREVCDNLENFTSGSPFLCMDLSYITALLKDGFGFADSTVLQLTKKVNNIETGWALGATFHLLQSLGISH",,,,,binding result [5]: no binding
"CD39L4 Cys39 to Ala mutant with a myc epitope and a 6 His tag at the C-terminus (enzyme, not shown: small tags and cut ends, also called Ala39 mutant; cys-mutant CD39L4) HRNQQTWFEGIFLSSMAPINVSASTLYGIMFDAGSTGTRIHVYTFVQKMPGQLPILEGEVFDSVKPGLSAFVDQPKQGAETVQGLLEVAKDSIPRSHWKKTPVVLKATAGLRLLPEHKAKALLFEVKEIFRKSPFLVPKGSVSIMDGSDEGILAWVTVNFLTGQLHGHRQETVGTLDLGGASTQITFLPQFEKTLEQTPRGYLTSFEMFNSTYKLYTHSYLGFGLKAARLATLGALETEGTDGHTFRSACLPRWLEAEWIFGGVKYQYGGNQEGEVGFEPCYAEVLRVVRGKLHQPEEVQRGSFYAFSYYYDRAVDTDMIDYEKGGILKVEDFERKAREVCDNLENFTSGSPFLCMDLSYITALLKDGFGFADSTVLQLTKKVNNIETGWALGATFHLLQSLGISH",,,,,binding result [5]: no binding
"ACR III: variant CD39-L4 with substitutions D168→T, S170→Q and L175→F (protein) MATSWGTVFFMLVVSCVCSAVSHRNQQTWFEGIFLSSMCPINVSASTLYGIMFDAGSTGTRIHVYTFVQKMPGQLPILEGEVFDSVKPGLSAFVDQPKQGAETVQGLLEVAKDSIPRSHWKKTPVVLKATAGLRLLPEHKAKALLFEVKEIFRKSPFLVPKGSVSIMTGQDEGIFAWVTVNFLTGQLHGHRQETVGTLDLGGASTQITFLPQFEKTLEQTPRGYLTSFEMFNSTYKLYTHSYLGFGLKAARLATLGALETEGTDGHTFRSACLPRWLEAEWIFGGVKYQYGGNQEGEVGFEPCYAEVLRVVRGKLHQPEEVQRGSFYAFSYYYDRAVDTDMIDYEKGGILKVEDFERKAREVCDNLENFTSGSPFLCMDLSYITALLKDGFGFADSTVLQLTKKVNNIETGWALGATFHLLQSLGISH",,,,,"hydrolysis of ADP, in words ([6]; ADP as substrate): hydrolyze ADP; hydrolysis of ATP, in words ([6]; ATP as substrate): neither the CD39L4 nor the CD39L4 mutant, ACR III, catalyzed hydrolysis; ADPase activity compared to wild type CD39-L4 ([6]; protein from COS-7 medium, 1 mM ADP, increase due to amount of protein, not specific activity): six-fold over wild type"
CD39-L2myc-His (protein) MKKGIRYETSRKTSYIFQQPQHGPWQTRMRKISNHGSLRVAKVAYPLGLCVGVFIYVAYIKWHRATATQAFFSITRAAPGARWGQQAHSPLGTAADGHEVFYGIMFDAGSTGTRVHVFQFTRPPRETPTLTHETFKAVKPGLSAYADDVEKSAQGIRELLDVAKQDIPFDFWKATPLVLKATAGLRLLPGEKAQKLLQKVKEVFKASPFLVGDDCVSIMNGTDEGVSAWITINFLTGSLKTPGGSSVGMLDLGGGSTQIAFLPRVEGTLQASPPGYLTALRMFNRTYKLYSYSYLGLGLMSARLAILGGVEGQPAKDGKELVSPCLSPSFKGEWEHAEVTYRVSGQKAAASLHELCAARVSEVLQNRVHRTEEVKHVDFYAFSYYYDLAAGVGLIDAEKGGSLVVGDFEIAAKYVCRTLETQPQSSPFSCMDLTYVSLLLQEFGFPRSKVLKLTRKIDNVETSWALGAIFHYIDSLNRQKSPAS,,,,,"K (Hill's Equation) [7, 9]: 364.5; cooperativity, n (Hill's Equation) [7, 9]: 2.48; Vmax of ADP hydrolysis ([7]; 15 mM CaCl2, ADP 0.75-18 mM, 15 min, 37° C., 3.5 ng protein per reaction): 1028 pmol/min; substrate at half-maximal velocity [S]0.5 ([7]; [S]0.5=K^1/n): 10.6 mM; stimulation of ADPase activity by Ca2+ ([8]; 15 mM ADP, CaCl2 added to 15 mM): 17 fold; stimulation of ADPase activity by Mg2+ ([8]; 15 mM ADP, MgCl2 added to 15 mM): 8 fold; fold increase in ADPase activity over cells transfected with vector alone ([8]; CD39-L2myc-His from COS-7 medium on Nickel-NTA resin, 1 mM ADP, no added cation): 8.7 fold; further fold increase in ADPase activity when Ca2+ and Mg2+ added ([8]; Ca2+ and Mg2+ added, 1 mM ADP): 2-3 fold; effect of high Ca2+ concentration on ADPase activity ([8]; CaCl2 2-15 mM, low substrate concentration, 37° C., 20 min): no inhibitory effect"

# Source: patent US6335013B1, “Methods and materials relating to CD39-like polypeptides” (Hyseq, Inc., priority 1999, dated 2002)
